Data as given in patent US9718835B2 (China Medical University Hospital, priority 2013, dated 2017).
Where two headings read alike, the source gives them in different places.

Experiments:
A549 (Lung cancer) = test: cells; assay type: cell-based, human
[1] = tested on: MDA-MB-468 (Breast cancer); test: cells; assay type: cell-based, human
HCT 116 (Colon cancer) = test: cells; assay type: cell-based, human
SKOV3 (Ovary cancer) = test: cells; assay type: cell-based, human
[2] = tested on: KB (epidermoid carcinoma of the nasopharynx); test: Sulforhodamine B cytotoxicity assay, KB; assay type: cell-based, human; settings: Table 1; 72 h; average ± SD; read-out: IC50 KB
Method: (§1) The 12 novel 1-derivatives 9a-l were evaluated for in vitro antiproliferative activity against four human tumor cell lines, KB (nasopharyngeal), A-549 (lung), DU-145 (prostate), and KBvin (MDR KB subline), by using a sulforhodamine B colorimetric assay with triplicate experiments.^30 Compounds 1 and 3 were used as controls.
(§2) The human tumor cell lines used in this manuscript were A-549 (lung carcinoma), MDA-MB-231 (triple-negative breast cancer), DU-145 (hormone-insensitive prostate cancer), KB (originally isolated from epidermoid carcinoma of the nasopharynx), KBvin (vincristine-resistant KB subline), and HCT116 (colorectal adenocarcinoma). These cell lines were obtained from the Lineberger Comprehensive Cancer Center (UNC-CH) or from ATCC (Manassas, Va.), except KBvin, which was a generous gift of Professor Y.-C. Cheng (Yale University). All cell lines were maintained and assayed in RPMI-1640 medium containing 2 mM L-glutamine and 25 mM HEPES (HyClone), supplemented with 10% heat-inactivated fetal bovine serum (HyClone), 100 μg/mL streptomycin, 100 IU/mL penicillin, and 0.25 μg/mL amphotericin B (Cellgro) in a humidified atmosphere containing 5% CO2 in air. Compound stock solutions were prepared at 10 mM in DMSO and diluted with culture medium with the final DMSO concentration ≦0.01% (v/v), a concentration without effect on cell growth. The 4-6×10^3 cells/well were cultured for 72 h with various concentrations of test compounds in 96-well plate at 37° C. […] Each assay was performed in triplicate with duplicated samples.

[3] = tested on: DU-145 (hormone-insensitive prostate cancer); test: Sulforhodamine B cytotoxicity assay, DU-145; assay type: cell-based, human; settings: Table 1; 72 h; average ± SD
Method: as §1, §2

[4] = tested on: KBvin (vincristine-resistant KB subline); test: Sulforhodamine B cytotoxicity assay, KBvin; assay type: cell-based, human; settings: Table 1; 72 h; average ± SD; read-out: IC50 KBvin
Text: as §2, with “Compound stock solutions were prepared at 10 mM in DMSO and diluted with culture medium with the final DMSO concentration ≦0.01% (v/v), a concentration without effect on cell growth.” left out

A-549 (lung carcinoma) = test: Sulforhodamine B cytotoxicity assay, A-549; assay type: cell-based, human; settings: Table 1; 72 h; average ± SD
Text: as §2, with “Compound stock solutions were prepared at 10 mM in DMSO and diluted with culture medium with the final DMSO concentration ≦0.01% (v/v), a concentration without effect on cell growth.” left out

[5] = molecular target: T1, recombinant human Topoisomerase I (Homo sapiens, UniProt P11387); test: Topoisomerase I activity assay in a cell-free system; assay type: biochemical; settings: purified recombinant human Topo I
T1 construct: purchased TopoGEN
T1 sequence (P11387 1-765): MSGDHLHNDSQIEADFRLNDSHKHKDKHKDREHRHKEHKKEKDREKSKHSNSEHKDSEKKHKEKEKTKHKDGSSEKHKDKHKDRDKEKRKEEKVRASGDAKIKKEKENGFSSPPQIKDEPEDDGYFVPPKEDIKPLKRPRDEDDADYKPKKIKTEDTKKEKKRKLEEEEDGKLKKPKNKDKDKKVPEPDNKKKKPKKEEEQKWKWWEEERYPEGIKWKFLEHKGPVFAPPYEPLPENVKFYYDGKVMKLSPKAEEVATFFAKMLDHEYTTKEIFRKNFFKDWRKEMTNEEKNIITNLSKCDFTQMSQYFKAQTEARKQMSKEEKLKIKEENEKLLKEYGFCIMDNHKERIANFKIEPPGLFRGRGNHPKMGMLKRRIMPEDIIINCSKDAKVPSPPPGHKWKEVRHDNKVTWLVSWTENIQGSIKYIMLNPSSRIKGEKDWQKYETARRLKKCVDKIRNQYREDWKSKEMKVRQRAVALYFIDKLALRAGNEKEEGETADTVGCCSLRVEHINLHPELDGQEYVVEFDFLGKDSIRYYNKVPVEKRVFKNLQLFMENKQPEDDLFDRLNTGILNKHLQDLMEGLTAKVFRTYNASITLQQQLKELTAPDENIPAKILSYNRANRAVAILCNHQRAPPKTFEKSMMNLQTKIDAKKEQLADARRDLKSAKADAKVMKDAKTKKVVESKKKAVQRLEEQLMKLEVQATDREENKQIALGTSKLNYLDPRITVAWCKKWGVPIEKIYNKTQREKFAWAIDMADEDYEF
Method: Inhibition of Topo I activity by 9a in a cell-free system. A 1-delivative with an esterified 20-hydroxy group is expected to be activated by digestion with carboxylesterases. […] We authenticated the inhibitory effect of 9a against Topo I in a dose-dependent manner Thus, we confirmed that 9a is a new class of Topo I inhibitor.
One unit of recombinant human Topoisomerase I enzyme (TopoGEN) was pre-incubated for 20 min at 37° C. with vehicle, 9a, 1, 3, or SN-38 in a final volume of 20 μL reaction buffer (10 mM Tris-HCl, pH 7.9, 1 mM EDTA, 150 mM NaCl, 0.1% BSA, 0.1 mM spermidine, 5% glycerol) was then incubated with 250 ng of supercoiled plasmid DNA for 20 min. The supercoiled, relaxed, or nicked DNA was separated by 1% agarose gel in 1×TAE (Tris-Acetate-EDTA) buffer. Ethidium bromide stained agarose gel was photographed using Gel Doc XR (Bio-Rad).

[6] = Homo sapiens, A549, Table 6, read-out: In vitro cytotoxicity A549 (Lung cancer)
[7] = Homo sapiens, MDA-MB-468, Table 6, read-out: In vitro cytotoxicity MDA-MB-468 (Breast cancer)
[8] = Homo sapiens, HCT-116, Table 6, read-out: In vitro cytotoxicity HCT 116 (Colon cancer)
[9] = Homo sapiens, SK-OV-3, Table 6, read-out: In vitro cytotoxicity SKOV3 (Ovary cancer)

SMILES | IC50 [2] | IC50 [3] | IC50 [4] | IC50 (A-549 (lung carcinoma)) | also measured
CCc1c2c(nc3ccccc13)-c1cc3c(c(=O)n1C2)COC(=O)[C@@]3(CC)OC(=O)CNC(Cc1ccc(OC)cc1)=NS(=O)(=O)c1ccc(C)cc1 [Wcpt-03] |  |  |  |  | IC50 (A549 (Lung cancer); Table 6, read-out: In vitro cytotoxicity A549 (Lung cancer)): 48.3 ± 1.72 nM; IC50 ([1]; Table 6, read-out: In vitro cytotoxicity MDA-MB-468 (Breast cancer)): 17.7 ± 3.2 nM; IC50 (HCT 116 (Colon cancer); Table 6, read-out: In vitro cytotoxicity HCT 116 (Colon cancer)): 208 ± 4.79 nM; IC50 (SKOV3 (Ovary cancer); Table 6, read-out: In vitro cytotoxicity SKOV3 (Ovary cancer)): 8.08 ± 1.67 nM
CC[C@@]1(OC(=O)CNC(Cc2ccc(OC)cc2)=NS(=O)(=O)c2ccc(C)cc2)C(=O)OCc2c1cc1n(c2=O)C(C)c2cc3ccccc3nc2-1 (stereo partly drawn) [#10] |  |  |  |  | IC50 (A549 (Lung cancer); [6]): 2810 ± 416 nM; IC50 [1, 7]: 1650 ± 90.8 nM; IC50 (HCT 116 (Colon cancer); [8]): 2090 ± 96.1 nM; IC50 (SKOV3 (Ovary cancer); [9]): 132 ± 24.2 nM
CC[C@@]1(OC(=O)C(NC(Cc2ccc(OC)cc2)=NS(=O)(=O)c2ccc(C)cc2)C(C)C)C(=O)OCc2c1cc1n(c2=O)Cc2cc3ccccc3nc2-1 (stereo partly drawn) [Compound 9e] | 11000 ± 480 nM | 1700 ± 140 nM | 1500 ± 110 nM | 1000 ± 110 nM | 
CC[C@@]1(OC(=O)C(Cc2ccccc2)NC(Cc2ccc(OC)cc2)=NS(=O)(=O)c2ccc(C)cc2)C(=O)OCc2c1cc1n(c2=O)Cc2cc3ccccc3nc2-1 (stereo partly drawn) [Compound 9k] | 850 ± 24 nM | 220 ± 25 nM | 120 ± 1.9 nM | 120 ± 10 nM | 
CC[C@@]1(OC(=O)CNC(Cc2ccccc2)=NS(=O)(=O)c2ccc(C)cc2)C(=O)OCc2c1cc1n(c2=O)Cc2cc3ccccc3nc2-1 [Compound 9b] | 180 ± 0.8 nM | 130 ± 11 nM | 100 ± 7.3 nM | 57 ± 3.9 nM | 
CCC(C)C(NC(Cc1ccc(OC)cc1)=NS(=O)(=O)c1ccc(C)cc1)C(=O)O[C@]1(CC)C(=O)OCc2c1cc1n(c2=O)Cc2cc3ccccc3nc2-1 (stereo partly drawn) [Compound 9i] | 9600 ± 42 nM | 8300 ± 140 nM | 1700 ± 160 nM | 1200 ± 66 nM | 
CC[C@@]1(OC(=O)C(NC(Cc2ccccc2)=NS(=O)(=O)c2ccc(C)cc2)C(C)C)C(=O)OCc2c1cc1n(c2=O)Cc2cc3ccccc3nc2-1 (stereo partly drawn) [Compound 9f] | 11000 ± 280 nM | 2000 ± 250 nM | 2200 ± 56 nM | 1300 ± 120 nM | 
CC[C@@]1(OC(=O)CNC(Cc2ccc(OC)cc2)=NS(=O)(=O)c2ccc(C)cc2)C(=O)OCc2c1cc1n(c2=O)Cc2cc3c(CN4CCN(C)CC4)c(O)ccc3nc2-1 [#9] |  |  |  |  | IC50 (A549 (Lung cancer); [6]): 13200 ± 1090 nM; IC50 [1, 7]: 871 ± 44.9 nM; IC50 (HCT 116 (Colon cancer); [8]): 458 ± 46.3 nM; IC50 (SKOV3 (Ovary cancer); [9]): 1700 ± 279 nM
CC[C@@]1(OC(=O)CNC(Cc2ccc(F)cc2)=NS(=O)(=O)c2ccc(C)cc2)C(=O)OCc2c1cc1n(c2=O)Cc2cc3ccccc3nc2-1 [#11] |  |  |  |  | IC50 (A549 (Lung cancer); [6]): 123 ± 9.1 nM; IC50 [1, 7]: 49.7 ± 6.53 nM; IC50 (HCT 116 (Colon cancer); [8]): 71.9 ± 2.59 nM; IC50 (SKOV3 (Ovary cancer); [9]): 31.1 ± 6.05 nM
CCc1c2c(nc3ccc(O)cc13)-c1cc3c(c(=O)n1C2)COC(=O)[C@@]3(CC)OC(=O)CNC(Cc1ccc(OC)cc1)=NS(=O)(=O)c1ccc(C)cc1 [Compound Wcpt-37] |  |  |  |  | IC50 (A549 (Lung cancer); [6]): 121 ± 15.8 nM; IC50 [1, 7]: 7.54 ± 4.07 nM; IC50 (HCT 116 (Colon cancer); [8]): 55.8 ± 2.05 nM; IC50 (SKOV3 (Ovary cancer); [9]): 11.6 ± 4.08 nM
CC[C@@]1(OC(=O)C(C)NC(Cc2ccc(OC)cc2)=NS(=O)(=O)c2ccc(C)cc2)C(=O)OCc2c1cc1n(c2=O)Cc2cc3ccccc3nc2-1 (stereo partly drawn) [Compound 9c] | 910 ± 60 nM | 140 ± 5.9 nM | 87 ± 8.7 nM | 89 ± 8.3 nM | 
CCC(C)C(NC(Cc1ccccc1)=NS(=O)(=O)c1ccc(C)cc1)C(=O)O[C@]1(CC)C(=O)OCc2c1cc1n(c2=O)Cc2cc3ccccc3nc2-1 (stereo partly drawn) [Compound 9j] | 11000 ± 1000 nM | 11000 ± 750 nM | 8200 ± 610 nM | 6500 ± 430 nM | 
CC[C@@]1(OC(=O)C(C)NC(Cc2ccccc2)=NS(=O)(=O)c2ccc(C)cc2)C(=O)OCc2c1cc1n(c2=O)Cc2cc3ccccc3nc2-1 (stereo partly drawn) [Compound 9d] | 220 ± 17 nM | 150 ± 22 nM | 96 ± 9.4 nM | 71 ± 6.9 nM | 
CC[C@@]1(OC(=O)C(CC(C)C)NC(Cc2ccc(OC)cc2)=NS(=O)(=O)c2ccc(C)cc2)C(=O)OCc2c1cc1n(c2=O)Cc2cc3ccccc3nc2-1 (stereo partly drawn) [Compound 9g] | 2700 ± 8.3 nM | 1600 ± 96 nM | 1000 ± 130 nM | 950 ± 18 nM | 
CCc1c2c(nc3ccc(OC(=O)N4CCC(N5CCCCC5)CC4)cc13)-c1cc3c(c(=O)n1C2)COC(=O)[C@@]3(CC)OC(=O)CNC(Cc1ccc(OC)cc1)=NS(=O)(=O)c1ccc(C)cc1 [Compound Wcpt-39] |  |  |  |  | IC50 (A549 (Lung cancer); Homo sapiens, A549, read-out: In vitro cytotoxicity A549 (Lung cancer)): 30700 ± 2120 nM; IC50 ([1]; Homo sapiens, MDA-MB-468, read-out: In vitro cytotoxicity MDA-MB-468 (Breast cancer)): 6640 ± 497 nM; IC50 (HCT 116 (Colon cancer); Homo sapiens, HCT-116, read-out: In vitro cytotoxicity HCT 116 (Colon cancer)): 12500 ± 445 nM; IC50 (SKOV3 (Ovary cancer); Homo sapiens, SK-OV-3, read-out: In vitro cytotoxicity SKOV3 (Ovary cancer)): 4380 ± 674 nM
CC[C@@]1(OC(=O)C(Cc2ccccc2)NC(CCO)=NS(=O)(=O)c2ccc(C)cc2)C(=O)OCc2c1cc1n(c2=O)Cc2cc3ccccc3nc2-1 (stereo partly drawn) [Compound 9l] | 310 ± 21 nM | 200 ± 13 nM | 140 ± 8.1 nM | 83 ± 10 nM | 
CCc1c2c(nc3ccc(O)cc13)-c1cc3c(c(=O)n1C2)COC(=O)[C@]3(O)CC [SN-38] |  |  |  |  | Inhibition of Topo I activity (relaxation/nicking of supercoiled plasmid DNA) [5]: inhibited Topo I activity
CC[C@@]1(OC(=O)C(CC(C)C)NC(Cc2ccccc2)=NS(=O)(=O)c2ccc(C)cc2)C(=O)OCc2c1cc1n(c2=O)Cc2cc3ccccc3nc2-1 (stereo partly drawn) [Compound 9h] | 4400 ± 420 nM | 1100 ± 16 nM | 1800 ± 30 nM | 890 ± 39 nM | 
